Data reported in patent US8969336B2, “Diamino heterocyclic carboxamide compound” (Astellas Pharma Inc., priority 2009, dated 2015).

Columns and labels:
[1] = target: EML4-ALK fusion protein v1 (Homo sapiens (Human), UniProt Q9UM73); test: Inhibitory activity against the kinase activity of EML4-ALK fusion protein (HTRF KinEASE-TK); assay type: biochemical; details: ATP 100 μM, reaction 1 hour
Source text: A recombinant retrovirus was created from expression plasmid FLAG-EML4-ALKv1/pMX-iresCD8 in which cDNA for EML4-ALK fusion protein v1 was integrated, and injected into mouse lymphoid cell line BA/F3 cells. Using a magnetic bead reagent for cell separation and a purification column (anti-CD8 monoclonal antibody immobilized on magnetic beads and a MiniMACS purification column; both are products of Miltenyi Biotec Inc.), cell surface CD8-expressing cells were purified to establish EML4-ALK fusion protein v1-expressing BA/F3 cells. From the cells, EML4-ALK fusion protein v1 was purified and subjected to kinase activity evaluation. EML4-ALK fusion protein v1 was investigated for its phosphorylation activity toward a peptide substrate by using a kinase activity detection kit (HTRF KinEASE-TK; Cisbio Inc.). […] The ATP concentration used was 100 μM.

[2] = test system: human non-small cell lung cancers cell line NCI-H2228 cells; test: Antitumor test (in vivo) on NCI-H2228 cells; details: NOD/SCID mice
Source text: The antitumor effects on EML4-ALK fusion protein-dependent cells can also be confirmed by use of human non-small cell lung cancers cell line NCI-H2228 cells (cells derived from EML4-ALK fusion polynucleotide-positive lung cancer patients (EML4-ALK fusion protein v3-dependent cells)) in place of the EML4-ALK fusion protein v1 expressing 3T3 cells of Test Example 3, as shown below.
3×10^6 cells of NCI-H2228 cells suspended in 50% Matrigel (Invitrogen) were inoculated subcutaneously by injection to the back of 5 weeks old male NOD/SCID mice (Charles River Japan, Inc.). After 3 weeks of the inoculation, the administration of test compounds was initiated. The test was conducted in the solvent group and test compound groups, 6 animals per group. The test compounds were each dissolved in a solvent composed of 10% 1-methyl-2-pyrrolidinone (SIGMA-ALDRICH Inc.)/90% polyethylene glycol 300 (Fluka Inc.) and administered orally at a dose of 1 mg/kg. Administrations were performed once a day for 14 days, and body weight and tumor size were measured every other day. Tumor volume was calculated using the following formula. [Tumor volume(mm^3)]=[Tumor major axis(mm)]×[tumor minor axis(mm)]^2×0.5

[3] = test system: BA/F3 cells expressing EML4-ALK fusion protein v1; test: Growth inhibitory activity against EML4-ALK fusion protein-dependent cells; assay type: cell-based, mouse; details: Mus musculus, BaF3, 48 h, growth of EML4-ALK fusion protein v1-expressing BA/F3 cells, cultured 2 days
Experimental: EML4-ALK fusion protein v1-expressing BA/F3 cells can grow in the absence of IL-3. In other words, they are cells that EML4-ALK fusion protein v1-dependently grow.
In a 96-well plate (Iwaki), BA/F3 cells expressing EML4-ALK fusion protein v1 were seeded at 500 cells per well in RPMI1640 medium (Invitrogen) containing 10% fetal bovine serum, followed by addition of a test compound (final concentration: 10 μM to 0.1 nM). As a negative control, DMSO used as a solvent of the test compound was added. Then, the cells were cultured under 5% CO2 at 37° C. for 2 days. A cell counting reagent (AlmarBlue; Biosource) was added, and the cells were cultured for 150 minutes, followed by measurement of fluorescence intensity with a […] (Safire; Tecan) in accordance with instructions attached to the reagent.

[4] = test system: EML4-ALK fusion protein v1 expressing 3T3 cells; test: Antitumor test (in vivo) on EML4-ALK fusion protein v1 expressing 3T3 cells; details: oral 10 mg/kg once a day for 5 days, Balb/c nude mice, EML4-ALK v1 3T3 tumor; values marked (regression)
Source text: Expression plasmid EML4-ALKv1/pMXS in which cDNA for EML4-ALK fusion protein v1 was integrated was trasfected into 3T3 fibroblast cells by the phosphate calcium method to thereby establish EML4-ALK fusion protein v1 expressing 3T3 cells. 3×10^6 cells of EML4-ALK fusion protein v1 expressing 3T3 cells suspended in PBS were inoculated subcutaneously by injection to the back of 5 weeks old male Balb/c nude mice (Charles River Japan, Inc.). After 7 days of the inoculation, the administration of test compound was initiated. The test was conducted in the solvent group and the compound group, 4 animals per group. The test compound was suspended in a solvent composed of 0.5% methylcellulose and administered orally at a dose of 10 mg/kg. Administrations were performed once a day for 5 days, and body weight and tumor size were measured every other day. Tumor volume was calculated using the following formula. [Tumor volume(mm^3)]=[Tumor major axis(mm)]×[tumor minor axis(mm)]^2×0.5
When regression of tumor volume is induced from the day of starting administration, the tumor volume on the day of starting administration and the state in which the tumor disappeared were assumed to be 0% regression and 100% regression, respectively, and the rate of regression of the test compound was calculated.

RET protein = RET protein (Homo sapiens (Human), UniProt P07949); test: Inhibitory activity against the kinase activity of RET protein; assay type: biochemical; details: RET kinase domain, ATP 100 μM, reaction 30 minutes
ROS protein = ROS protein (Homo sapiens (Human), UniProt P08922); test: Inhibitory activity against the kinase activity of ROS protein; assay type: biochemical; details: ROS kinase domain, ATP 50 uM
Chain of ROS protein (P08922 1945-2222): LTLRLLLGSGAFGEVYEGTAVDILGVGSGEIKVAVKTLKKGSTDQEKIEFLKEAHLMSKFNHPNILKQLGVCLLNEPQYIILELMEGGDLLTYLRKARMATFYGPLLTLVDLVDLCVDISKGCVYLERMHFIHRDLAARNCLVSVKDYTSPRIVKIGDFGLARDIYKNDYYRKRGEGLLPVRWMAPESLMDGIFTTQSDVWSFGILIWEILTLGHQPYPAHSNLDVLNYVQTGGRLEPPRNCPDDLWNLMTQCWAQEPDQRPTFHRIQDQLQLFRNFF

Chain of EML4-ALK fusion protein v1 (Q9UM73 other isoform, or with tags, fused parts or gaps): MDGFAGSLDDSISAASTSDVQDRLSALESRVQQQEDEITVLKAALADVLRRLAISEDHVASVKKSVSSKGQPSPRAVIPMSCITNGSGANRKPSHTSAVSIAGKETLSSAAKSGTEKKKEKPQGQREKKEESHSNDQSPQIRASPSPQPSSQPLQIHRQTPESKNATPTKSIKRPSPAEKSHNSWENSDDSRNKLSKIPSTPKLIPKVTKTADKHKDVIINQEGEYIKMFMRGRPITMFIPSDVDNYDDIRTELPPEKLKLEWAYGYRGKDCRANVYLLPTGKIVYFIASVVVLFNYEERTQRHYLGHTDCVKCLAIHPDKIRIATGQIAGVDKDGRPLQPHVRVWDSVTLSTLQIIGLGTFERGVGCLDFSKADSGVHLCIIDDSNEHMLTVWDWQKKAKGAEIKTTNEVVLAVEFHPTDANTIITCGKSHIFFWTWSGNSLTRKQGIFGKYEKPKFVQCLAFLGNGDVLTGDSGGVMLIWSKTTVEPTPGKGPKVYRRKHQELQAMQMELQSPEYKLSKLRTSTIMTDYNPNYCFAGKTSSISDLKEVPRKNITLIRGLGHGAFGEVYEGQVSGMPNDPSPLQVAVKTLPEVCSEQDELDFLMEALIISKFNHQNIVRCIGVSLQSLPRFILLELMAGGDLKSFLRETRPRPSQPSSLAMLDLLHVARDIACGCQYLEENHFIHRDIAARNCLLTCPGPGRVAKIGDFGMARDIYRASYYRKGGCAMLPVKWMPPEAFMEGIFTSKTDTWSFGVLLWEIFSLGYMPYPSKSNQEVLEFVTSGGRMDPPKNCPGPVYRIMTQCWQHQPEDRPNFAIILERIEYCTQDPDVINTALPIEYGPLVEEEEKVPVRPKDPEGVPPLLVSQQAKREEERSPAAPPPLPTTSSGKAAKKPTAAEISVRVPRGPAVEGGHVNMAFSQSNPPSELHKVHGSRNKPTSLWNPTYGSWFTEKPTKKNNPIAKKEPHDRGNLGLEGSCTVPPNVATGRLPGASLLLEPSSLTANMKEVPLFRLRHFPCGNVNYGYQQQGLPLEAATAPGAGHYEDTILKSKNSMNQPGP
Chain of RET protein (P07949 724-1016): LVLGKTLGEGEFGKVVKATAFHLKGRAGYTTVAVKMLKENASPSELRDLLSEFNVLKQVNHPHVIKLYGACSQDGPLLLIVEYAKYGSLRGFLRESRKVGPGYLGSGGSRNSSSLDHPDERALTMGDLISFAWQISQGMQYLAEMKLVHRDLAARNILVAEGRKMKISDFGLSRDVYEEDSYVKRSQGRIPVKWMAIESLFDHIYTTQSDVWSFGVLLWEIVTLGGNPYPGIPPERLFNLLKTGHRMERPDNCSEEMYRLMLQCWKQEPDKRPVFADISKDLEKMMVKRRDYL

`CCc1nc(C(N)=O)c(Nc2cccc(C)c2)nc1NCCN(C)C` [Compound Y, 5-{[2-(dimethylamino)ethyl]amino}-6-ethyl-3-[(3-methylphenyl)amino]pyrazine-2-carboxamide, reference compound] was tested, and the IC50 [1] was > 1000 nM, the “growth inhibition against NCI-H2228 cells (tumor) compared with the solvent group” value ([2]; oral administration, Student's t-test) was “no significant growth inhibition” and the IC50 [3] was > 1000 nM.
For `CC(C)c1nc(C(N)=O)c(Nc2ccc(N3CCC(N4CCN(C)CC4)CC3)cc2)nc1NC1CCOCC1` [Example 549], the IC50 [1] was 2.1 nM, the “rate of regression (tumor volume)” value [4] was 67 (regression) % and the “inhibition rate of growth of tumor of NCI-H2228 cells” value ([2]; oral 1 mg/kg once a day for 14 days) was 69%. For the same molecule, the IC50 [3] was 14 nM.
In the case of `CCc1nc(C(N)=O)c(Nc2ccc(N3CCC(N4CCN(C)CC4)CC3)c(OC)c2)nc1NC1CCOCC1` [Example 577], the IC50 (RET protein) is reported as 3.4 nM and the IC50 (ROS protein) is reported as 1.9 nM.
